The nature of data set [1]: Stability observed during preparation. The class given is physicochemical. Particulars: isolated compound; acid, base, water vapor. The protocol:
(1R,3R,4R)-5-amino-2-methylcyclohexanol hydrochloride (57 mg, 0.342 mmol) and DIEA (132 mg, 1.026 mmol) were added to a solution of compound T041-3 (100 mg, 0.342 mmol) in isopropanol (3 mL) at room temperature with stirring. After stirring at room temperature for 3 h, the reaction was completed. The reaction mixture was added with water and extracted with ethyl acetate, and the organic phase was washed with saturated brine and dried over anhydrous sodium sulfate. The reaction mixture was concentrated under reduced pressure, purified by preparative high performance liquid chromatography (ammonium bicarbonate method) and lyophilized to give 40 mg of a white solid with a yield of 34%.

The subject of data set [2] is RAW264.7 phosphorylated c-Jun (Ser63). Put plainly: RAW264.7 phosphorylated c-Jun whole cell assay. It is filed as cell-based. The following applies: Mus musculus; cytological assay, activity level; lipopolysaccharide-activated RAW264.7 cells, phospho-c-Jun (Ser63) ELISA. The protocol:
RAW264.7 (ATCC TIB-71) cells were purchased from BeNa Culture Collection and maintained in a high-glucose DMEM medium (Gibco) containing 10% fetal bovine serum (Gibco) and 1% penicillin-streptomycin (Gibco). All cells were cultured at 37° C. in 95% air and 5% CO2. All cells were seeded into 120 μL of cell culture medium in a 96-well plate at a density of 2×10^5 cells per well. The stock solution of compound (15 mM) was serially diluted in DMSO (Sigma) and further diluted in growth medium, and it was then added at 15 μL per well as a 10× concentrated solution, well mixed with the cells and incubated with the cells for 30 min. Concentration of the compound vehicle (DMSO) in each well was 0.2%. After incubation for 30 min, the cells were activated with […] lipopolysaccharide (Sigma). Lipopolysaccharide was added to the growth medium as a 10× concentrated solution at 15 μL per well. The cell plate was incubated for 1 h, and then all the medium was removed. The level of C-Jun protein with phosphorylation of serine at site 63 was measured using the whole cell lysate kit-phosphorylated C-Jun assay (PathScan® Phospho-c-Jun (Ser63) Sandwich ELISA Kit) (CST, 7145C) according to the manufacturer's instructions.
Background: ELISA stands for enzyme-linked immunosorbent assay.

A further data set addresses T1, JNK1 kinase (Homo sapiens, UniProt P45983).
T1 construct: purchased Carna Biosciences 04-163
Put plainly: JNK1 activity screening (time-resolved fluorometric HTRF kinase assay). The class given is biochemical. Particulars: enzymatic assay, activity level. The protocol: JNK1 activity screening. JNK1 activity was detected using a 96-well (Cisbio, 66PL96025) time-resolved fluorometric assay. The JNK1 assay was conducted in the following assay buffer: 10 mM MgCl2 (Sigma, M1028), 1 mM MnCl2 (Sigma, M1787), 1 mM DTT (Sigma, D0632) and 1× Enzymatic buffer/kinase (Cisbio, 62EZBFDC). By using the assay buffer, 3 μL of 0.1 ng/μL JNK1 kinase (Carna Biosciences, 04-163) was added to a 96-well microplate, and then 4 μL of a compound diluted appropriately (with a DMSO content of 2.5%) was added. The resulting mixture was incubated at room temperature for 0.5 h. To start the reaction, the assay buffer was used to mix 0.003 μM ATP (Aladdin, A7699) and 30 μM substrate ATF2-GST fusion (Cisbio, 64CUS000AFPEB), and 3 μL of the mixed solution was added to the microplate. The resulting mixture was incubated at room temperature for 2.5 h. HTRF detection buffer ([…], 62SDBRDD) was used then to prepare a mixture of 5 μg/mL MAb Anti GST-XL665 (Cisbio, 61GSTXLA) and 0.045 μg/mL PAb Anti-phospho ATF2-K (Cisbio, 61P12KAZ), and 10 μL of the mixture was added to the plate to terminate the reaction. After incubation for about 12 h, the plate was read on a Perkin-Elmer Envision reader.
Background: In TR-FRET formats the signal depends on donor and acceptor labels being close together.

Molecules are shown by their SMILES. Bounds are passed on as bounds.

T1 sequence (P45983 whole entry): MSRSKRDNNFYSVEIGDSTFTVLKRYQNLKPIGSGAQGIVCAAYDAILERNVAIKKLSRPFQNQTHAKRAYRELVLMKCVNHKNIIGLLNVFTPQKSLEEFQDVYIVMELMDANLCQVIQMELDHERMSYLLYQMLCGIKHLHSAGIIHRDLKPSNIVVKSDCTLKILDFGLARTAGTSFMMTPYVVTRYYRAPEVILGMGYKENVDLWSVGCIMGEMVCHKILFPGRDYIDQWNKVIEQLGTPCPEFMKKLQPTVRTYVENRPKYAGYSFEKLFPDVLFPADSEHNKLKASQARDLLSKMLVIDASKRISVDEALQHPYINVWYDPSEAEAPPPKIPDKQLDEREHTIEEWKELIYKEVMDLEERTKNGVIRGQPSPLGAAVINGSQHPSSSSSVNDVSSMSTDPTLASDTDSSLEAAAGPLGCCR

In the case of `C[C@@H]1CC[C@@H](Nc2nc(OC(C)(C)C)ncc2Br)C[C@H]1O` [Compound T041, (1R,2R,5R)-5-((5-bromo-2-(tert-butoxy)pyrimidin-4-yl)amino)-2-methylcyclohexan-l-ol], the “stability of the compound” value in data set [1] is “unstable due to susceptibility to acid, base, water vapor and the like”. Moreover, the IC50 is more than 1000 nM in data set [2] and 500 to 1000 nM against JNK1 kinase.

On to `C[C@@H]1CC[C@@H](Nc2cc(NC3CCC(O)CC3)ncc2C(N)=O)C[C@H]1O` (stereo partly drawn) [Compound T052, 4-(((1R,3R,4R)-3-hydroxy-4-methylcyclohexyl)amino)-6-((4-hydroxycyclohexyl)amino) nicotinamide], for which the results for the IC50 (in data set [2]; on JNK1 kinase) were more than 1000 nM and 500 to 1000 nM, respectively.

`C[C@@H]1CC[C@@H](Nc2cc(NC3CCCC(O)C3)ncc2C(N)=O)C[C@H]1O` (stereo partly drawn) [Compound T053, 4-(((1R,3R,4R)-3-hydroxy-4-methylcyclohexyl)amino)-6-((3-hydroxycyclohexyl)amino) nicotinamide]: the IC50 (in data set [2]; on JNK1 kinase) was more than 1000 nM each time.

`C[C@@H]1CC[C@@H](Nc2cc(NC3CCCCC3)ncc2C(N)=O)C[C@H]1O` [Compound T054, 6-(cyclohexylamino)-4-(((1R,3R,4R)-3-hydroxy-4-methylcyclohexyl)amino) nicotinamide]: the IC50 (in data set [2]; at JNK1 kinase) was more than 1000 nM in each case.

Take `C[C@@H]1CC[C@@H](Nc2cc(NC3CCCC3O)ncc2C(N)=O)C[C@H]1O` (stereo partly drawn) [Compound T055, 4-(((1R,3R,4R)-3-hydroxy-4-methylcyclohexyl)amino)-6-((2-hydroxycyclopentyl)amino)nicotinamide]: the IC50 (in data set [2]; at JNK1 kinase) was more than 1000 nM in each case.

On to `C[C@@H]1CC[C@@H](Nc2cc(NC3CCCC3)ncc2C(N)=O)C[C@H]1O` [Compound T056, 6-(cyclopentylamino)-4-(((1R,3R,4R)-3-hydroxy-4-methylcyclohexyl)amino) nicotinamide], for which the results for the IC50 (in data set [2]; against JNK1 kinase) were more than 1000 nM and 500 to 1000 nM, respectively.

Turning to `C[C@@H]1CC[C@@H](Nc2cc(NC(C)(C)F)ncc2C(N)=O)C[C@H]1O` [Compound T057, 6-((2-fluoropropan-2-yl)amino)-4-(((1R, 3R,4R)-3-hydroxy-4-methylcyclohexyl)amino)nicotinamide], the IC50 (in data set [2]; against JNK1 kinase) was more than 1000 nM in each case.

Regarding `C[C@@H]1CC[C@@H](Nc2cc(NC3CC3)ncc2C(N)=O)C[C@H]1O` [Compound T058, 6-(cyclopropylamino)-4-(((1R,3R,4R)-3-hydroxy-4-methylcyclohexyl)amino) nicotinamide], the IC50 (in data set [2]; on JNK1 kinase) was more than 1000 nM throughout.

`C[C@@H]1CC[C@@H](Nc2cc(NC3CC3O)ncc2C(N)=O)C[C@H]1O` (stereo partly drawn) [Compound T059, 4-(((1R,3R,4R)-3-hydroxy-4-methylcyclohexyl)amino)-6-((2-hydroxycyclopropyl)amino)nicotinamide]: the IC50 (in data set [2]; against JNK1 kinase) was more than 1000 nM in each case.

Take `C[C@@H]1CC[C@@H](Nc2cc(NC3C4C[C@H]43)ncc2C(N)=O)C[C@H]1O` (stereo partly drawn) [Compound T060, 6-(((1R,2R)-bicyclo[1 1.0]butan-2-yl)amino)-4-(((1R,3R,4R)-3-hydroxy-4-methylcyclohexyl)amino)nicotinamide]: the IC50 (in data set [2]; against JNK1 kinase) was more than 1000 nM throughout.

Regarding `C[C@@H]1CC[C@@H](Nc2nc(NC(C)(C)C)ncc2[N+](=O)[O-])C[C@H]1O` [Compound T062, (1R,2R,5R)-5-((2-(tert-butylamino)-5-nitropyrimidin-4-yl)amino)-2-methylcyclohex-1-ol], the IC50 (in data set [2]; at JNK1 kinase) was more than 1000 nM each time.

Consider `C[C@@H]1CC[C@@H](Nc2nc(NC(C)(C)C)ncc2N)C[C@H]1O` [Compound T063, (1R,2R,5R)-5-((5-amino-2-(tert-butylamino)pyrimidin-4-yl)amino)-2-methylcyclohexan-1-ol], for which the IC50 (in data set [2]; against JNK1 kinase) was more than 1000 nM throughout.

Regarding `C#Cc1cnc(NC(C)(C)C)nc1N[C@@H]1CC[C@@H](C)[C@H](O)C1` [Compound T064, (1R,2R,5R)-5-((2-(ter-butylamino)-5-ethynylpyrimidin-4-yl)amino)-2-methylcyclohex-1-ol], the IC50 in data set [2] was more than 1000 nM; on JNK1 kinase, 500 to 1000 nM.

In the case of `CC#Cc1cnc(NC(C)(C)C)nc1N[C@@H]1CC[C@@H](C)[C@H](O)C1` [Compound T065, (1R,2R,5R)-5-((2-(tert-butylamino)-5-(prop-1-yn-1-yl)pyrimidin-4-yl)amino)-2-methylcyclohexan-1-ol], the IC50 (in data set [2]; at JNK1 kinase) was more than 1000 nM each time.

Consider `C=Cc1cnc(NC(C)(C)C)nc1N[C@@H]1CC[C@@H](C)[C@H](O)C1` [Compound T066, (1R,2R,5R)-5-((2-(tert-butylamino)-5-vinylpyrimidin-4-yl)amino)-2-methylcyclohex-1-ol], for which the IC50 (in data set [2]; against JNK1 kinase) was more than 1000 nM throughout.

With `CC(=O)c1cnc(NC(C)(C)C)nc1N[C@@H]1CC[C@@H](C)[C@H](O)C1` [Compound T067, 1-(2-(tert-butylamino)-4-(((1R,3R,4R)-3-hydroxy-4-methylcyclohexyl)amino)pyrimidin-5-yl)ethan-1-one], the IC50 (in data set [2]; against JNK1 kinase) was 100 to 500 nM each time.

Consider `C[C@@H]1CC[C@@H](Nc2nc(NC(C)(C)C)ncc2C(=O)C2CC2)C[C@H]1O` [Compound T068, (2-(tert-butylamino)-4-(((1R,3R,4R)-3-hydroxy-4-methylcyclohexyl)amino)pyrimidin-5-yl)(cyclopropyl)methanone], for which the IC50 (in data set [2]; on JNK1 kinase) was 100 to 500 nM throughout.

As for `CCC(=O)c1cnc(NC(C)(C)C)nc1N[C@@H]1CC[C@@H](C)[C@H](O)C1` [Compound T069, 1-(2-(tert-butylamino)-4-(((1R,3R,4R)-3-hydroxy-4-methylcyclohexyl)amino)pyrimidin-5-yl)propan-1-one], the IC50 (in data set [2]; at JNK1 kinase) was 100 to 500 nM each time.

For `CC(C)C(=O)c1cnc(NC(C)(C)C)nc1N[C@@H]1CC[C@@H](C)[C@H](O)C1` [Compound T070, 1-(2-(tert-butylamino)-4-(((1R,3R,4R)-3-hydroxy-4-methylcyclohexyl)amino)pyrimidin-5-yl)-2-methylpropan-1-one], the IC50 in data set [2] is more than 1000 nM; at JNK1 kinase, 500 to 1000 nM.

In the case of `CC(=O)c1cnc(NC(C)(C)C(F)(F)F)nc1N[C@@H]1CC[C@@H](C)[C@H](O)C1` [Compound T071, 1-(4-(((1R,3R,4R)-3-hydroxy-4-methylcyclohexyl)amino)-2-((1,1,1-trifluoro-2-methylpropan-2-yl)amino)pyrimidin-5-yl)ethan-1-one], the IC50 in data set [2] was more than 1000 nM; against JNK1 kinase, 500 to 1000 nM.

With `C[C@@H]1CC[C@@H](Nc2nc(Nc3ccc(S(C)(=O)=O)cc3)ncc2C(N)=O)C[C@H]1O` [Compound T072, 4-(((1R,3R,4R)-3-hydroxy-4-methylcyclohexyl)amino)-2-((4-(methylsulfonyl)phenyl)amino) pyrimidine-5-carboxamide], the IC50 (in data set [2]; at JNK1 kinase) was less than 100 nM in each case.

`C[C@@H]1CC[C@@H](Nc2nc(Nc3ccc(N4CCN(C)CC4)cc3)ncc2C(N)=O)C[C@H]1O` [Compound T073, 4-(((1R,3R,4R)-3-hydroxy-4-methylcyclohexyl)amino)-2-((4-(4-methylpiperazin-1-yl)phenyl)amino)pyrimidine-5-carboxamide]: the IC50 in data set [2] was 100 to 500 nM; on JNK1 kinase it was less than 100 nM.

Take `COc1ccc(CNc2ncc(C(N)=O)c(N[C@@H]3CC[C@@H](C)[C@H](O)C3)n2)cc1` [Compound T074, 4-(((1R,3R,4R)-3-hydroxy-4-methylcyclohexyl)amino)-2-((4-methoxybenzyl)amino)pyrimidine-5-carboxamide]: the IC50 (in data set [2]; against JNK1 kinase) was less than 100 nM throughout.

In general, IC50 refers to the concentration needed to halve the response being measured. A high value points to lower potency.

The values above are taken from patent publication US20230104283A1, “JNK INHIBITOR, AND PHARMACEUTICAL COMPOSITION AND USE THEREOF” (WUHAN LL SCIENCE AND TECHNOLOGY DEVELOPMENT CO. , LTD, priority 2019, published 2023).
